Columns and labels:
Assay type in all cases: physicochemical
[1] = Batch liquid-liquid extraction of oxidized model diesel with 50 W % aqueous acetic acid, gas chromatographic analysis (Example 1, Table 10A); details: for total extraction: two batch extractions, solvent-to-model diesel about 1:1, 23° C., 1 atmosphere; for co-extraction: after both extractions
Experimental: (§1) A quantity of 100 mL of a model diesel feed formed of xylene, DBT, DBT sulfoxide and DBT sulfone (with a total sulfur content of 1635 ppmw) was oxidized by 30 W % aqueous hydrogen peroxide at a temperature of 37° C. and at a pressure of 1 atmosphere for a period of 70 minutes with solid ZnO catalyst (1.2 g) and a ratio of oxidant (H2O2) to organic sulfur of 4:1 in acetic acid, about 10 mL. After the sold catalyst settled, the model diesel was removed for extraction of sulfoxidation products and removal of aqueous H2O2 using an embodiment of the selective solvent formulation of the present invention.
DBT sulfoxide and DBT sulfone were extracted using a selective solvent formulation of 50 W % aqueous acetic acid. Two batch extractions were sequentially conducted using a solvent-to-model diesel ratio of about 1:1 at a temperature of 23° C. and at a pressure of 1 atmosphere for a period of 2 minutes, during which the contents were stirred. The total extraction of DBT sulfoxide and DBT sulfone was 95 W % and 55 W % respectively. Furthermore, the co-extraction of xylene was limited to 1.9 W % after both extractions, and the co-extraction of DBT (not oxidized) was limited to 13.2 W % after both extractions. The total sulfur measured by sulfur speciation (using an ANTEK Model 9000 analyzer commercially available from Antek Instruments, Inc., Houston, Tex. USA) determined that the overall sulfur content was reduced by 55 W % as shown at Table 10B.

[2] = Batch liquid-liquid extraction of oxidized model diesel with 50 W % aqueous methanol, gas chromatography (Example 3, Table 12A)
Experimental: as §1
A quantity of oxidized model diesel feed as used in Example 1 was subjected to extraction to remove DBT sulfoxide and DBT sulfone using a selective solvent formulation of 50 W % aqueous methanol. One extraction was conducted using a solvent to model diesel ratio of about 1:1 at a temperature of 23° C. and at a pressure of 1 atmosphere for a period of 2 minutes, during which the contents were stirred. The total extraction of DBT sulfoxide was 51.5 W %. […] The co-extraction of DBT (not oxidized) was limited to 3.1 W %. The total sulfur measured by sulfur speciation determined that the overall sulfur content was reduced by 16 W % as shown at Table 12B.

[3] = Batch liquid-liquid extraction of oxidized model diesel with 70 W % aqueous formic acid, gas chromatography (Example 2, Table 11A); details: for total extraction: two batch extractions, about 1:1, 23° C., 1 atmosphere
Experimental: as §1
A quantity of oxidized model diesel feed as used in Example 1 was subjected to extraction to remove DBT sulfoxide and DBT sulfone using a selective solvent formulation of 70 W % aqueous formic acid. Two batch extractions were sequentially conducted using a solvent to model diesel ratio of about 1:1 at a temperature of 23° C. and at a pressure of 1 atmosphere for a period of 2 minutes, during which the contents were stirred. The total extraction of DBT sulfoxide and DBT sulfone was 94 W % and 56 W % respectively. Furthermore, the co-extraction of xylene was limited to 2 W % after the first extraction, and increased by 3.8 W % after the second extraction, based on the normalization percentage of the peak regions for the GC analysis for each extraction. The normalization method is qualitative and quasi-quantitative, so that the peak area varies. The slight positive (3.8%) of xylene is due to the normalization of the sum of all peaks and it was changed by material balance variation and/or with measurement error.
The co-extraction of DBT (not oxidized) was limited to 10 W % after both extractions. The total sulfur measured by sulfur speciation determined that the overall sulfur content was reduced by 56 W % as shown in Table 11B.

[4] = 50 W % aqueous acetic acid, 2 minutes
[5] = Model diesel oxidized, before extraction
[6] = after 1st extraction, 50 W % aqueous acetic acid
[7] = after 1st extraction, 50 W % aqueous acetic acid, solvent:diesel about 1:1, 23° C., 2 minutes
[8] = after 2nd extraction, 50 W % aqueous acetic acid
[9] = after 2nd extraction, 50 W % aqueous acetic acid, solvent:diesel about 1:1, 23° C., 2 minutes
[10] = after 1st extraction, 50 W % aqueous methanol
[11] = after 1st extraction, 50 W % aqueous methanol, solvent:diesel about 1:1, 23° C., 2 minutes
[12] = 70 W % aqueous formic acid, 2 minutes
[13] = after 1st extraction, 70 W % aqueous formic acid
[14] = after 1st extraction, 70 W % aqueous formic acid, solvent:diesel about 1:1, 23° C., 2 minutes
[15] = after 2nd extraction, 70 W % aqueous formic acid
[16] = after 2nd extraction, 70 W % aqueous formic acid, solvent:diesel about 1:1, 23° C., 2 minutes
[17] = 50 W % aqueous methanol, one extraction

Molecule: [O-][s+]1c2ccccc2c2ccccc21 [DBT sulfoxide, dibenzothiophene 5-oxide]
- total extraction [1, 4]: 95 W %
- GC abundance in model diesel [1, 5]: 24.02 abundance units
- change of GC abundance versus oxidized model diesel [1, 6]: (−67.5%)
- GC abundance in model diesel [1, 7]: 7.81 abundance units
- change of GC abundance versus oxidized model diesel [1, 8]: (−94.8%)
- GC abundance in model diesel [1, 9]: 1.26 abundance units
- total extraction ([2]; 50 W % aqueous methanol, one extraction, about 1:1, 23° C., 1 atmosphere, 2 minutes): 51.5 W %
- GC abundance in model diesel [2, 5]: 24.02 abundance units
- change of GC abundance versus oxidized model diesel [2, 10]: (−51.5%)
- GC abundance in model diesel [2, 11]: 11.64 abundance units
- total extraction [3, 12]: 94 W %
- GC abundance in model diesel [3, 5]: 24.02 abundance units
- change of GC abundance versus oxidized model diesel [3, 13]: (−73.1%)
- GC abundance in model diesel [3, 14]: 6.45 abundance units
- change of GC abundance versus oxidized model diesel [3, 15]: (−94%)
- GC abundance in model diesel [3, 16]: 1.38 abundance units

Molecule: O=S1(=O)c2ccccc2-c2ccccc21 [DBT sulfone, dibenzothiophene 5,5-dioxide]
- total extraction [1, 4]: 55 W %
- GC abundance in model diesel [1, 5]: 25.09 abundance units
- change of GC abundance versus oxidized model diesel [1, 6]: (−23.7%)
- GC abundance in model diesel [1, 7]: 19.15 abundance units
- change of GC abundance versus oxidized model diesel [1, 8]: (−54.8%)
- GC abundance in model diesel [1, 9]: 11.39 abundance units
- GC abundance in model diesel [2, 5]: 25.09 abundance units
- change of GC abundance versus oxidized model diesel [2, 10]: (−2.4%)
- GC abundance in model diesel [2, 11]: 24.49 abundance units
- total extraction [3, 12]: 56 W %
- GC abundance in model diesel [3, 5]: 25.09 abundance units
- change of GC abundance versus oxidized model diesel [3, 13]: (−30.4%)
- GC abundance in model diesel [3, 14]: 17.46 abundance units
- change of GC abundance versus oxidized model diesel [3, 15]: (−55.6%)
- GC abundance in model diesel [3, 16]: 11.14 abundance units

Molecule: xylene
- co-extraction ([1]; 50 W % aqueous acetic acid): 1.9 W %
- GC abundance in model diesel [1, 5]: 9283.7 abundance units
- change of GC abundance versus oxidized model diesel [1, 6]: (−1.4%)
- GC abundance in model diesel [1, 7]: 9155.2 abundance units
- change of GC abundance versus oxidized model diesel [1, 8]: (−1.9%)
- GC abundance in model diesel [1, 9]: 9108.19 abundance units
- amount increased after extraction (normalized GC results) [2, 17]: 2.8 W %
- co-extraction [2, 17]: no co-extraction
- GC abundance in model diesel [2, 5]: 9283.7 abundance units
- change of GC abundance versus oxidized model diesel [2, 10]: +2.8%)
- GC abundance in model diesel [2, 11]: 9540.4 abundance units
- co-extraction ([3]; 70 W % aqueous formic acid, after the first extraction): 2 W %
- increase after the second extraction (normalized GC peak) ([3]; 70 W % aqueous formic acid, after the second extraction): 3.8 W %
- GC abundance in model diesel [3, 5]: 9283.7 abundance units
- change of GC abundance versus oxidized model diesel [3, 13]: (−1.9%)
- GC abundance in model diesel [3, 14]: 9111.6 abundance units
- change of GC abundance versus oxidized model diesel [3, 15]: (+3.8%)
- GC abundance in model diesel [3, 16]: 9635.5 abundance units

Molecule: c1ccc2c(c1)sc1ccccc12 [DBT, dibenzothiophene]
- co-extraction ([1]; 50 W % aqueous acetic acid): 13.2 W %
- GC abundance in model diesel [1, 5]: 24.44 abundance units
- change of GC abundance versus oxidized model diesel [1, 6]: (−9.6%)
- GC abundance in model diesel [1, 7]: 22.09 abundance units
- change of GC abundance versus oxidized model diesel [1, 8]: (−13.2%)
- GC abundance in model diesel [1, 9]: 21.22 abundance units
- co-extraction [2, 17]: 3.1 W %
- GC abundance in model diesel [2, 5]: 24.44 abundance units
- change of GC abundance versus oxidized model diesel [2, 10]: (−3.1%)
- GC abundance in model diesel [2, 11]: 23.69 abundance units
- co-extraction ([3]; 70 W % aqueous formic acid, after both extractions): 10 W %
- GC abundance in model diesel [3, 5]: 24.44 abundance units
- change of GC abundance versus oxidized model diesel [3, 13]: (−10.4%)
- GC abundance in model diesel [3, 14]: 21.89 abundance units
- change of GC abundance versus oxidized model diesel [3, 15]: (−10.0%)
- GC abundance in model diesel [3, 16]: 22 abundance units

Source: patent US20160244679A1, “SELECTIVE LIQUID-LIQUID EXTRACTION OF OXIDATIVE DESULFURIZATION REACTION PRODUCTS” (SAUDI ARABIAN OIL COMPANY, priority 2011, published 2016)
